Test results from patent US8293682B2, “Growth regulators for gramineous weeds” (Rikengreen Co., Ltd., priority 2008, dated 2012).

Legend:
[1] = test system: annual bluegrass (Poa annua L.); experiment: Test Example 1: number of ear emergence, poly-cup, single or mixed application; type: in vivo
Experimental: At the initial stage of the ear emergence of annual bluegrass (Poa annua L.) grown in a poly-cup of 11 cm×11 cm, benzyladenine (Beanine for painting; made by Rikengreen; containing 1% benzyladenine) and ethephon (Ethrel 10 soluble concentrate; Nissan Chemical Industries; containing 10% ethephon) respectively as a single active ingredient or a mixture of them were diluted in a predetermined amount of water and applied by atomization so as to be a dose as indicated in Table. The application was carried out using 100 mL/m^2 of the solution to which a spreader (Riken Sprayzer (registered trade mark); made by Rikengreen) was added so as to be 1/1,000 fold. Inspection was made on Days 21, 32 and 45 after treatment with the agents to count the number of ear emergence in the cup. After completion of each inspection, clipping was performed.

[2] = test system: annual bluegrass (Poa annua L.); experiment: Test Example 2: count of ear emergence, poly-cup, applications at intervals / alternate application; type: in vivo
Experimental: At the initial stage of the ear emergence of annual bluegrass (Poa annua L.) grown in a poly-cup of 11 cm×11 cm, benzyladenine (Beanine for painting; made by Rikengreen; containing 1% benzyladenine) and/or ethephon (Ethrel 10 soluble concentrate; Nissan Chemical Industries; containing 10% ethephon) were diluted in a predetermined amount of water, and a spreader (Riken Sprayzer (registered trade mark); made by Rikengreen) was added so as to be 1/1,000-fold concentration; the respectively diluted solutions were applied by atomization at a dose and intervals as indicated in Table (scattered solution: 200 mL/m^2), and the number of emerged ears of annual bluegrass (Poa annua L.) in the cup was counted through time. The test was carried out serially. […] The symbol “●” in Table indicates the treatment with benzyladenine, “◯” the treatment with ethephon, and “−” untreated. Dose means the amount at a single application.

[3] = test system: annual bluegrass (Poa annua L.); experiment: Test Example 3: number of emerged ears and leaves, poly-cup, two applications; type: in vivo; conditions: for Ear (number of emerged ears in the cup) / [Leaf] (number of leaves within 6 cm×6 cm): 2nd application after 29 days
Experimental: At the initial stage of the ear emergence of annual bluegrass (Poa annua L.) grown in a poly-cup of 11 cm×11 cm, benzyladenine (Beanine for painting; made by Rikengreen; containing 1% benzyladenine) and ethephon (Ethrel 10 soluble concentrate; Nissan Chemical Industries; containing 10% ethephon) were diluted in a predetermined amount of water, and a spreader (Riken Sprayzer (registered trade mark); made by Rikengreen) was added so as to be 1/1,000-fold concentration; the respectively diluted solutions were applied by atomization at a dose as indicated in Table (scattered solution: 200 mL/m^2), and after a lapse of 29 days, the 2nd application was carried out. Then, the number of emerged ears of annual bluegrass (Poa annua L.) in the cup was counted. Further, the number of leaves [Leaf] of annual bluegrass (Poa annua L.) was counted within the area of 6 cm×6 cm in the cup. The test was carried out serially. […] Dose means the amount at a single application.

[4] = test system: annual bluegrass (Poa annua L.); experiment: Test Example 4: field test in bent green turf, emerged ear number; type: in vivo; conditions: applied Day 0 and after 30 days
Experimental: In a bent green turf where annual bluegrasses (Poa annua L.) were grown, a test zone of 1 m×1 m was provided. Benzyladenine (Beanine for painting; made by Rikengreen; containing 1% benzyladenine) and ethephon (Ethrel 10 soluble concentrate; Nissan Chemical Industries; containing 10% ethephon) were diluted in a predetermined amount of water, and a spreader (Riken Sprayzer (registered trade mark); made by Rikengreen) was added so as to be 1/1,000-fold concentration. The respectively diluted solutions were applied to each test zone at the first application (Day 0) at a dose as indicated in Table, and after a lapse of 30 days the second application was carried out. The amount of solution scattered was 100 mL/m^2 both in the first and second applications. The number of ear emergence of annual bluegrass (Poa annua L.) within the area of 10×10 cm was counted at regular intervals at 3 spots per zone. […] Dose means the amount at a single application.

lawn grasses = conditions: cited from earlier work
[5] = Day 46, Benzyladenine + Ethephon 2 + 0 mg a.i./m^2
[6] = Day 46, Benzyladenine + Ethephon 4 + 0 mg a.i./m^2

## c1ccc(CNc2ncnc3nc[nH]c23)cc1 [Benzyladenine, 6-benzylaminopurine]
[1]; 21 Days after Application, Benzyladenine 2, Ethephon 0 mg a.i./m^2
  number of ear emergence in the cup: 39
[1]; 21 Days after Application, Benzyladenine 4, Ethephon 0 mg a.i./m^2
  number of ear emergence in the cup: 26
[1]; 21 Days after Application, Benzyladenine 8, Ethephon 0 mg a.i./m^2
  number of ear emergence in the cup: 36
[1]; 21 Days after Application, Benzyladenine 12, Ethephon 0 mg a.i./m^2
  number of ear emergence in the cup: 16
[1]; 21 Days after Application, Benzyladenine 16, Ethephon 0 mg a.i./m^2
  number of ear emergence in the cup: 11
[1]; 32 Days after Application, Benzyladenine 2, Ethephon 0 mg a.i./m^2
  number of ear emergence in the cup: 50
[1]; 32 Days after Application, Benzyladenine 4, Ethephon 0 mg a.i./m^2
  number of ear emergence in the cup: 34
[1]; 32 Days after Application, Benzyladenine 8, Ethephon 0 mg a.i./m^2
  number of ear emergence in the cup: 10
[1]; 32 Days after Application, Benzyladenine 12, Ethephon 0 mg a.i./m^2
  number of ear emergence in the cup: 9
[1]; 32 Days after Application, Benzyladenine 16, Ethephon 0 mg a.i./m^2
  number of ear emergence in the cup: 6
[1]; 45 Days after Application, Benzyladenine 2, Ethephon 0 mg a.i./m^2
  number of ear emergence in the cup: 71
[1]; 45 Days after Application, Benzyladenine 4, Ethephon 0 mg a.i./m^2
  number of ear emergence in the cup: 71
[1]; 45 Days after Application, Benzyladenine 8, Ethephon 0 mg a.i./m^2
  number of ear emergence in the cup: 67
[1]; 45 Days after Application, Benzyladenine 12, Ethephon 0 mg a.i./m^2
  number of ear emergence in the cup: 55
[1]; 45 Days after Application, Benzyladenine 16, Ethephon 0 mg a.i./m^2
  number of ear emergence in the cup: 45
[1]; Test Example 1, Tables 1-3
  inhibition of ear emergence (summary in words): effective in inhibiting the ear emergence
[2]; Day 25, Benzyladenine 0.67 mg a.i./m^2 applied Day 0, 6, 12
  Count of ear emergence: 37
[2]; Day 25, Benzyladenine 0.67 mg a.i./m^2 applied Day 6, 12
  Count of ear emergence: 34
[2]; Day 25, Benzyladenine 0.67 mg a.i./m^2 applied Day 12
  Count of ear emergence: 37
[2]; Day 25, Benzyladenine 2 mg a.i./m^2 applied Day 0, 6, 12
  Count of ear emergence: 20
[2]; Day 25, Benzyladenine 2 mg a.i./m^2 applied Day 6, 12
  Count of ear emergence: 14
[2]; Day 25, Benzyladenine 2 mg a.i./m^2 applied Day 12
  Count of ear emergence: 22
[2]; Day 33, Benzyladenine 0.67 mg a.i./m^2 applied Day 0, 6, 12
  Count of ear emergence: 50
[2]; Day 33, Benzyladenine 0.67 mg a.i./m^2 applied Day 6, 12
  Count of ear emergence: 24
[2]; Day 33, Benzyladenine 0.67 mg a.i./m^2 applied Day 12
  Count of ear emergence: 28
[2]; Day 33, Benzyladenine 2 mg a.i./m^2 applied Day 0, 6, 12
  Count of ear emergence: 26
[2]; Day 33, Benzyladenine 2 mg a.i./m^2 applied Day 6, 12
  Count of ear emergence: 15
[2]; Day 33, Benzyladenine 2 mg a.i./m^2 applied Day 12
  Count of ear emergence: 23
[3]; Day 23, Benzyladenine + Ethephon 2 + 0 mg a.i./m^2
  Ear (number of emerged ears in the cup): 12
[3]; Day 23, Benzyladenine + Ethephon 4 + 0 mg a.i./m^2
  Ear (number of emerged ears in the cup): 2
[3]; [5]
  Ear (number of emerged ears in the cup): 54
  [Leaf] (number of leaves within 6 cm×6 cm): [105]
[3]; [6]
  Ear (number of emerged ears in the cup): 55
  [Leaf] (number of leaves within 6 cm×6 cm): [108]
[3]; Day 53, Benzyladenine + Ethephon 2 + 0 mg a.i./m^2
  Ear (number of emerged ears in the cup): 43
[3]; Day 53, Benzyladenine + Ethephon 4 + 0 mg a.i./m^2
  Ear (number of emerged ears in the cup): 48
[3]; Test Example 3
  inhibition of ear emergence (summary in words): strongly inhibits the ear emergence
  number of leaves (bud number) (summary in words): increases the number of leaves
[4]; Day 22, Ethephon 0, Benzyladenine 4 mg a.i./m^2
  Ear (mean emerged ear number within 10×10 cm): 62.3
[4]; Day 22, Ethephon 0, Benzyladenine 8 mg a.i./m^2
  Ear (mean emerged ear number within 10×10 cm): 34.3
[4]; Day 22, Ethephon 0, Benzyladenine 12 mg a.i./m^2
  Ear (mean emerged ear number within 10×10 cm): 27.0
[4]; Day 41, Ethephon 0, Benzyladenine 4 mg a.i./m^2
  Ear (mean emerged ear number within 10×10 cm): 150.3
[4]; Day 41, Ethephon 0, Benzyladenine 8 mg a.i./m^2
  Ear (mean emerged ear number within 10×10 cm): 59.7
[4]; Day 41, Ethephon 0, Benzyladenine 12 mg a.i./m^2
  Ear (mean emerged ear number within 10×10 cm): 32.7
[4]; Day 61, Ethephon 0, Benzyladenine 4 mg a.i./m^2
  Ear (mean emerged ear number within 10×10 cm): 107.0
[4]; Day 61, Ethephon 0, Benzyladenine 8 mg a.i./m^2
  Ear (mean emerged ear number within 10×10 cm): 53.0
[4]; Day 61, Ethephon 0, Benzyladenine 12 mg a.i./m^2
  Ear (mean emerged ear number within 10×10 cm): 41.0
Lawn grasses; Non-patent document 1
  rooting of lawn grasses: effect for accelerating the rooting of lawn grasses
Lawn grasses; Patent document 1
  growth of lawn grasses: effect for accelerating the growth of lawn grasses
